In the supplement of paper PMC10307832:

Assays:
Assay in all cases: relative viability (nuclei count vs DMSO), 5 days (fraction); higher = more cells survive
Trametinib + Dasatinib = compound: CC(=O)Nc1cccc(-n2c(=O)n(C3CC3)c(=O)c3c(Nc4ccc(I)cc4F)n(C)c(=O)c(C)c32)c1 [Trametinib] + Cc1nc(Nc2ncc(C(=O)Nc3c(C)cccc3Cl)s2)cc(N2CCN(CCO)CC2)n1 [Dasatinib] (partner 0.075 µM)
How it was run: (§1)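 Relative viability equals treated-well nuclei counts divided by vehicle-well nuclei counts. Counts came from 4× images of lung cancer cell lines grown in 1536-well plates for 5 days after pin-tool dosing on the day after seeding. Dosing used one drug alone or a fixed anchor-drug dose plus five library-drug doses (not always all listed) in √10 steps, and values are medians of duplicate plates.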

[1] = compound: CN1C=C(C2=CC=CC=C21)/C=C\3/C4=C(C=CC=N4)NC3=O + CC(=O)Nc1cccc(-n2c(=O)n(C3CC3)c(=O)c3c(Nc4ccc(I)cc4F)n(C)c(=O)c(C)c32)c1 [Trametinib] (partner 0.02 µM)
How it was run: as §1

[2] = compound: CN1C=C(C2=CC=CC=C21)/C=C\3/C4=C(C=CC=N4)NC3=O + Cc1nc(Nc2ncc(C(=O)Nc3c(C)cccc3Cl)s2)cc(N2CCN(CCO)CC2)n1 [Dasatinib] (partner 0.075 µM)
How it was run: as §1

[3] = compound: CN1C=C(C2=CC=CC=C21)/C=C\3/C4=C(C=CC=N4)NC3=O + Nc1nc2[nH]cc(CCc3ccc(C(=O)N[C@@H](CCC(=O)O)C(=O)O)cc3)c2c(=O)[nH]1 [Pemetrexed] (partner 0.2 µM)
How it was run: as §1

Cell Line UMC-11 has a relative viability (Trametinib + Dasatinib; first compound 0.0025 µM) of 0.446, a relative viability (Trametinib + Dasatinib; first compound 0.007906 µM) of 0.509 and a relative viability (Trametinib + Dasatinib; first compound 0.025 µM) of 0.385. For the same cell line, the relative viability (Trametinib + Dasatinib; first compound 0.07906 µM) was 0.491, the relative viability (Trametinib + Dasatinib; first compound 0.25 µM) was 0.49 and the relative viability ([1]; first compound 0.02 µM) was 0.638. It also gave a relative viability ([1]; first compound 0.06325 µM) of 0.549, a relative viability ([1]; first compound 0.2 µM) of 0.552 and a relative viability ([1]; first compound 0.6325 µM) of 0.671. It also gave a relative viability ([1]; first compound 2 µM) of 0.78, a relative viability ([2]; first compound 0.02 µM) of 0.556 and a relative viability ([2]; first compound 0.06325 µM) of 0.449. For the same cell line, the relative viability ([2]; first compound 0.2 µM) was 0.367, the relative viability ([2]; first compound 0.6325 µM) was 0.41 and the relative viability ([2]; first compound 2 µM) was 0.632. It also gave a relative viability ([3]; first compound 0.02 µM) of 0.655, a relative viability ([3]; first compound 0.06325 µM) of 0.744 and a relative viability ([3]; first compound 0.2 µM) of 0.801. It also gave a relative viability ([3]; first compound 0.6325 µM) of 0.857 and a relative viability ([3]; first compound 2 µM) of 0.936.
